Results from US20230085307A1, “PYRIDAZINONE COMPOUND AND HERBICIDE” (NISSAN CHEMICAL CORPORATION, priority 2019, published 2023).

Assays:
[1] = tested on: chickweed; assay: Test Example 4: herbicidal effect by soil treatment (Table 19, symbol P); type: in vivo, common chickweed (Stellaria media); settings: amount of applied herbicide 320 g/ha
In short: (§1)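 In this soil treatment, the formulated compound reached the seeds only through the soil: seeds were buried about 1.5 cm deep in sterilized diluvial soil, then the diluted emulsion was sprayed over the surface. After three weeks at 25° C. to 30° C. in a greenhouse, effects were graded on criteria from an earlier test.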

[2] = tested on: southern crabgrass; assay: Test Example 5: herbicidal effect by foliage application, plastic box (Table 20, symbol F); type: in vivo, southern crabgrass (Digitaria ciliaris); settings: foliage application, 320 g/ha, three weeks after application
In short: (§2)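 Plants were sown into sterilized diluvial soil under about 1.5 cm cover and kept in a greenhouse at 25° C. to 30° C. Fourteen days on, foliage received an even spray of the diluted emulsion. Herbicidal or crop effect was judged three weeks afterwards.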

[3] = tested on: windgrass; assay: Test Example 4: herbicidal effect by soil treatment (Table 19, symbol L); type: in vivo, windgrass (Apera spica-venti); settings: amount of applied herbicide 320 g/ha
In short: as §1

[4] = tested on: wild oat; assay: Test Example 4: herbicidal effect by soil treatment (Table 19, symbol I); type: in vivo, wild oat (Avena fatua); settings: amount of applied herbicide 320 g/ha
In short: as §1

[5] = tested on: persian speedwell; assay: Test Example 4: herbicidal effect by soil treatment (Table 19, symbol R); type: in vivo, Persian speedwell (Veronica persica); settings: amount of applied herbicide 320 g/ha
In short: as §1

[6] = tested on: persian speedwell; assay: Test Example 5: herbicidal effect by foliage application, plastic box (Table 20, symbol R); type: in vivo, Persian speedwell (Veronica persica); settings: foliage application, 320 g/ha, three weeks after application
In short: as §2

[7] = tested on: Chinese sprangletop; assay: Test Example 3: herbicidal effect by foliage application, Wagner pot (Table 18, symbol D); type: in vivo, chinese sprangletop (Leptochloa chinensis); settings: amount of applied herbicide 320 g/ha
In short: (§3)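 Plants were sown in alluvial soil held under 0.1–0.5 cm standing water and grown 14 days in a greenhouse at 25–30 °C. An emulsifiable formulation, water-diluted to the set dose, was then sprayed onto the foliage, and effects were scored three weeks later using previously defined criteria.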

[8] = tested on: chickweed; assay: Test Example 5: herbicidal effect by foliage application, plastic box (Table 20, symbol P); type: in vivo, common chickweed (Stellaria media); settings: foliage application, 320 g/ha, three weeks after application
In short: as §2

[9] = tested on: southern crabgrass; assay: Test Example 4: herbicidal effect by soil treatment (Table 19, symbol F); type: in vivo, southern crabgrass (Digitaria ciliaris); settings: amount of applied herbicide 320 g/ha
In short: as §1

[10] = tested on: velvetleaf; assay: Test Example 5: herbicidal effect by foliage application, plastic box (Table 20, symbol M); type: in vivo, velvetleaf (Abutilon theophrasti); settings: foliage application, 320 g/ha, three weeks after application
In short: as §2

[11] = tested on: blackgrass; assay: Test Example 5: herbicidal effect by foliage application, plastic box (Table 20, symbol J); type: in vivo, blackgrass (Alopecurus myosuroides); settings: foliage application, 320 g/ha, three weeks after application
In short: as §2

[12] = tested on: barnyard grass; assay: Test Example 3: herbicidal effect by foliage application, Wagner pot (Table 18, symbol H); type: in vivo, barnyard grass (Echinochloa crus-galli); settings: amount of applied herbicide 320 g/ha
In short: as §3

[13] = tested on: rice flat sedge; assay: Test Example 3: herbicidal effect by foliage application, Wagner pot (Table 18, symbol E); type: in vivo, rice flat sedge (Cyperus iria); settings: amount of applied herbicide 320 g/ha
In short: as §3

[14] = tested on: green foxtail; assay: Test Example 5: herbicidal effect by foliage application, plastic box (Table 20, symbol G); type: in vivo, green foxtail (Setaria viridis); settings: foliage application, 320 g/ha, three weeks after application
In short: as §2

[15] = tested on: false cleavers; assay: Test Example 4: herbicidal effect by soil treatment (Table 19, symbol Q); type: in vivo, false cleavers (Galium spurium); settings: amount of applied herbicide 320 g/ha
In short: as §1

[16] = tested on: wild oat; assay: Test Example 5: herbicidal effect by foliage application, plastic box (Table 20, symbol I); type: in vivo, wild oat (Avena fatua); settings: foliage application, 320 g/ha, three weeks after application
In short: as §2

[17] = tested on: lambsquarters; assay: Test Example 4: herbicidal effect by soil treatment (Table 19, symbol O); type: in vivo, lambsquarters (Chenopodium album); settings: amount of applied herbicide 320 g/ha
In short: as §1

[18] = tested on: redroot pigweed; assay: Test Example 4: herbicidal effect by soil treatment (Table 19, symbol N); type: in vivo, redroot pigweed (Amaranthus retroflexus); settings: amount of applied herbicide 320 g/ha
In short: as §1

[19] = tested on: false cleavers; assay: Test Example 5: herbicidal effect by foliage application, plastic box (Table 20, symbol Q); type: in vivo, false cleavers (Galium spurium); settings: foliage application, 320 g/ha, three weeks after application
In short: as §2

[20] = tested on: blackgrass; assay: Test Example 4: herbicidal effect by soil treatment (Table 19, symbol J); type: in vivo, blackgrass (Alopecurus myosuroides); settings: amount of applied herbicide 320 g/ha
In short: as §1

[21] = tested on: Italian ryegrass; assay: Test Example 4: herbicidal effect by soil treatment (Table 19, symbol K); type: in vivo, Italian ryegrass (Lolium multiflorum); settings: amount of applied herbicide 320 g/ha
In short: as §1

[22] = tested on: redroot pigweed; assay: Test Example 5: herbicidal effect by foliage application, plastic box (Table 20, symbol N); type: in vivo, redroot pigweed (Amaranthus retroflexus); settings: foliage application, 320 g/ha, three weeks after application
In short: as §2

[23] = tested on: green foxtail; assay: Test Example 4: herbicidal effect by soil treatment (Table 19, symbol G); type: in vivo, green foxtail (Setaria viridis); settings: amount of applied herbicide 320 g/ha
In short: as §1

[24] = tested on: lambsquarters; assay: Test Example 5: herbicidal effect by foliage application, plastic box (Table 20, symbol O); type: in vivo, lambsquarters (Chenopodium album); settings: foliage application, 320 g/ha, three weeks after application
In short: as §2

[25] = tested on: barnyard grass; assay: Test Example 5: herbicidal effect by foliage application, plastic box (Table 20, symbol H); type: in vivo, barnyard grass (Echinochloa crus-galli); settings: foliage application, 320 g/ha, three weeks after application
In short: as §2

[26] = tested on: Italian ryegrass; assay: Test Example 5: herbicidal effect by foliage application, plastic box (Table 20, symbol K); type: in vivo, Italian ryegrass (Lolium multiflorum); settings: foliage application, 320 g/ha, three weeks after application
In short: as §2

[27] = tested on: windgrass; assay: Test Example 5: herbicidal effect by foliage application, plastic box (Table 20, symbol L); type: in vivo, windgrass (Apera spica-venti); settings: foliage application, 320 g/ha, three weeks after application
In short: as §2

[28] = tested on: barnyard grass; assay: Test Example 4: herbicidal effect by soil treatment (Table 19, symbol H); type: in vivo, barnyard grass (Echinochloa crus-galli); settings: amount of applied herbicide 320 g/ha
In short: as §1

[29] = tested on: velvetleaf; assay: Test Example 4: herbicidal effect by soil treatment (Table 19, symbol M); type: in vivo, velvetleaf (Abutilon theophrasti); settings: amount of applied herbicide 320 g/ha
In short: as §1

Structure (SMILES)	F: southern crabgrass, herbicidal effect grade [2]	R: persian speedwell, herbicidal effect grade [6]	herbicidal effect on D: Chinese sprangletop [7]	P: chickweed, herbicidal effect grade [8]	M: velvetleaf, herbicidal effect grade [10]	J: blackgrass, herbicidal effect grade [11]	herbicidal effect on H: barnyard grass [12]	herbicidal effect on E: rice flat sedge [13]	G: green foxtail, herbicidal effect grade [14]	I: wild oat, herbicidal effect grade [16]	Q: false cleavers, herbicidal effect grade [19]	N: redroot pigweed, herbicidal effect grade [22]	O: lambsquarters, herbicidal effect grade [24]	H: barnyard grass, herbicidal effect grade [25]	K: Italian ryegrass, herbicidal effect grade [26]	L: windgrass, herbicidal effect grade [27]	further results
Cc1nn(C)c(=O)c(-c2c(-c3ccc(F)cc3)sc3cc(F)ccc23)c1O [3-001]	5 (Herbicidal rate of 90% or more (almost completely withered))	5 (Herbicidal rate of 90% or more (almost completely withered))	5 (Herbicidal rate of 90% or more (almost completely withered))	5 (Herbicidal rate of 90% or more (almost completely withered))	5 (Herbicidal rate of 90% or more (almost completely withered))	5 (Herbicidal rate of 90% or more (almost completely withered))	5 (Herbicidal rate of 90% or more (almost completely withered))	5 (Herbicidal rate of 90% or more (almost completely withered))	5 (Herbicidal rate of 90% or more (almost completely withered))	5 (Herbicidal rate of 90% or more (almost completely withered))	5 (Herbicidal rate of 90% or more (almost completely withered))	5 (Herbicidal rate of 90% or more (almost completely withered))	5 (Herbicidal rate of 90% or more (almost completely withered))	5 (Herbicidal rate of 90% or more (almost completely withered))	5 (Herbicidal rate of 90% or more (almost completely withered))	5 (Herbicidal rate of 90% or more (almost completely withered))	herbicidal effect, P: chickweed [1]: 5 (Herbicidal rate of 90% or more (almost completely withered)); herbicidal effect, L: windgrass [3]: 4 (Herbicidal rate of 70% or more and less than 90%); herbicidal effect, I: wild oat [4]: 4 (Herbicidal rate of 70% or more and less than 90%); herbicidal effect, R: persian speedwell [5]: 4 (Herbicidal rate of 70% or more and less than 90%); herbicidal effect, F: southern crabgrass [9]: 5 (Herbicidal rate of 90% or more (almost completely withered)); herbicidal effect, Q: false cleavers [15]: 3 (Herbicidal rate of 40% or more and less than 70%); herbicidal effect, O: lambsquarters [17]: 5 (Herbicidal rate of 90% or more (almost completely withered)); herbicidal effect, N: redroot pigweed [18]: 5 (Herbicidal rate of 90% or more (almost completely withered)); herbicidal effect, J: blackgrass [20]: 3 (Herbicidal rate of 40% or more and less than 70%); herbicidal effect, K: Italian ryegrass [21]: 5 (Herbicidal rate of 90% or more (almost completely withered)); herbicidal effect, G: green foxtail [23]: 4 (Herbicidal rate of 70% or more and less than 90%); herbicidal effect, H: barnyard grass [28]: 4 (Herbicidal rate of 70% or more and less than 90%); herbicidal effect, M: velvetleaf [29]: 0 (Herbicidal rate of 5% or less (almost no effect))
CCCC(=O)Oc1c(C)nn(C)c(=O)c1-c1c(-c2ccc(F)cc2)sc2cc(Cl)ccc12 [3-032]	4 (Herbicidal rate of 70% or more and less than 90%)	5 (Herbicidal rate of 90% or more (almost completely withered))	3 (Herbicidal rate of 40% or more and less than 70%)	5 (Herbicidal rate of 90% or more (almost completely withered))	4 (Herbicidal rate of 70% or more and less than 90%)	4 (Herbicidal rate of 70% or more and less than 90%)	5 (Herbicidal rate of 90% or more (almost completely withered))	3 (Herbicidal rate of 40% or more and less than 70%)	4 (Herbicidal rate of 70% or more and less than 90%)	5 (Herbicidal rate of 90% or more (almost completely withered))	0 (Herbicidal rate of 5% or less (almost no effect))	5 (Herbicidal rate of 90% or more (almost completely withered))	4 (Herbicidal rate of 70% or more and less than 90%)	4 (Herbicidal rate of 70% or more and less than 90%)	4 (Herbicidal rate of 70% or more and less than 90%)	5 (Herbicidal rate of 90% or more (almost completely withered))	P: chickweed, herbicidal effect grade [1]: 4 (Herbicidal rate of 70% or more and less than 90%); L: windgrass, herbicidal effect grade [3]: 3 (Herbicidal rate of 40% or more and less than 70%); I: wild oat, herbicidal effect grade [4]: 0 (Herbicidal rate of 5% or less (almost no effect)); R: persian speedwell, herbicidal effect grade [5]: 5 (Herbicidal rate of 90% or more (almost completely withered)); F: southern crabgrass, herbicidal effect grade [9]: 0 (Herbicidal rate of 5% or less (almost no effect)); Q: false cleavers, herbicidal effect grade [15]: 3 (Herbicidal rate of 40% or more and less than 70%); O: lambsquarters, herbicidal effect grade [17]: 4 (Herbicidal rate of 70% or more and less than 90%); N: redroot pigweed, herbicidal effect grade [18]: 4 (Herbicidal rate of 70% or more and less than 90%); J: blackgrass, herbicidal effect grade [20]: 0 (Herbicidal rate of 5% or less (almost no effect)); K: Italian ryegrass, herbicidal effect grade [21]: 0 (Herbicidal rate of 5% or less (almost no effect)); G: green foxtail, herbicidal effect grade [23]: 0 (Herbicidal rate of 5% or less (almost no effect)); H: barnyard grass, herbicidal effect grade [28]: 0 (Herbicidal rate of 5% or less (almost no effect)); M: velvetleaf, herbicidal effect grade [29]: 0 (Herbicidal rate of 5% or less (almost no effect))
